Data taken from publication PMC13492380, “Dissecting Structural and Functional Determinants of Microtubules Stabilization through Guided Chemical Modulation” (Journal of Medicinal Chemistry, 2026).

Tested on: taxane site of assembled cross-linked MTs
Assay: Displacement of FTX2 from the taxane site (fluorescence polarization)
Format: binding, calf
Details: for incremental binding free energy (ΔΔG), PTX-to-derivative modification: 35 °C; for ΔH 0 app: Van't Hoff analysis, 26–42 °C; for ΔG 0 app at 26 °C: from binding constant, −RT Ln Ka; for ΔS 0 app: slope of ΔG0app versus T
Description: Purified calf brain tubulin and chemicals were obtained as previously described. Tau-mCherry was expressed and purified as described previously. Human Kif5B-EGFP (amino acids 1-905), containing a C terminal fluorescent-tag followed by a 3C protease cleavage site and a 6 × His-tag was expressed and purified as in with some modifications. Prior to purification, cells were resuspended in 1:1 ratio of lysis buffer (30 mM HEPES pH 7.5, 300 mM NaCl, 0.5 mM ATP, 5% glycerol, 20 mM imidazole, […]) supplemented with 1× Protease inhibitor cocktail and benzonase to the final concentration of 25 units/ml. Cells were homogenized by repeated pipetting. Cells were lysed by spinning for 45 min at 40,000 rpm in 45 Ti fixed-angle rotor (Beckman Coulter) at 4 °C. The supernatant was incubated with pre-equilibrated HisPUR NiNTA agarose resin (Thermo Fisher Scientific) for 1 h in a tightly closed gravity-flow column (Thermo Fisher Scientific) at 4 °C by slowly rotating. Subsequently, the resin was washed once lysis buffer and then with buffer B (30 mM HEPES pH 7.5, 300 mM NaCl, 0.5 mM ATP, 5% glycerol, 30 mM imidazole, […]). The protein was eluted from the resin after an overnight cleavage of the 6 × His-tag with 3C HRV protease in lysis buffer at 4 °C. The eluted protein was further purified via size exclusion chromatography on Superdex 200 10/300 GL column equilibrated in exclusion buffer (30 mM HEPES pH 7.5, 300 mM NaCl, 0.5 mM ATP, 5% glycerol, […]). Peak fractions were analyzed via SDS-PAGE, pooled and the protein was concentrated with Amicon Ultra-15 Centrifugal Filter tubes (Millipore). Purified proteins were aliquoted, snap-frozen in liquid N2, and stored at −80 °C.
The equilibrium binding constant of 1a and 1b to the taxane site of assembled MTs were determined by the displacement of FTX2 from the taxane site in cross-linked MTs. The displacement isotherm of each ligand was measured at least three times in two different plates with a fluorescence polarization microplate reader, as described. A mixture of 50 nM taxane binding sites and 50 nM FTX2 in GAB buffer was sampled in a 96-well plate. […] After mixing the samples for 10 min by shaking at 250 rpm, they were incubated 20 min at the desired temperatures (26, 35 or 42 °C) and their anisotropies were measured using a Spark Tecan plater reader in fluorescence polarization at emission of 535 nm and excitation of 485 nm. A sample containing 50 nM taxane binding sites was employed as blank, and a 50 nM solution of FTX2 in GAB, 0.1 mM GTP was employed as anisotropy standard. G factor was calculated as a mean over several cells in different conditions. The molar saturation fraction, X b , of the probe for each competitor concentration is calculated from the polarization values measured, P. Measurements of the polarization of FTX2 completely displaced (P 0 ) and, in absence of the competitor ligand (P sat), are required for data processing. The binding of FTX2 in the presence of the competitor ligand (X b = (P–P 0 /P sat – P 0 ) · X sat) was calculated and best fitted to the equilibrium binding constant of the competitor assuming unitary stoichiometry and the binding constant of the reference ligand (FTX2) with a PC program (Equigra v5).
Once the equilibrium binding constants are measured at different temperatures, the standard free energy of binding at a given temperature is calculated from the binding constant as ΔG 0app = −RT Ln K a, the standard enthalpy of the binding reaction is calculated from the representation of Ln K a versus 1/T (Van’t Hoff representation), and the slope of this representation multiplied by −R is equal to −ΔH 0app. The standard entropy of binding to ΔS 0app is calculated from the slope of the linear regression of ΔG 0app versus T.

SMILES | fold lower binding constant than PTX | incremental binding free energy (ΔΔG), PTX-to-derivative modification | ΔH 0 app | ΔG 0 app at 26 °C | ΔS 0 app
CC(=O)OC1C(=O)C2(C)C(OC(=O)CCCCC(=O)OC3CCc4ccccc43)CC3OCC3(OC(C)=O)C2C(OC(=O)c2ccccc2)C2(O)CC(OC(=O)C(O)C(NC(=O)c3ccccc3)c3ccccc3)C(C)=C1C2(C)C (centres unmarked) [1a, 7-O-(6″-O-(2‴,3‴-Dihydroinden-1‴-yl)hexanedioyl) Paclitaxel] | ~100 fold | 9.8 kJ mol^–1 | –24 ± 4 kJ mol^–1 | –31.9 ± 0.1 kJ mol^–1 | –27 ± 5 J mol ^aK^–1
COc1ccc2c(c1)CC(NC(=O)CCCCCCCC(=O)OC1CC3OCC3(OC(C)=O)C3C(OC(=O)c4ccccc4)C4(O)CC(OC(=O)C(O)C(NC(=O)c5ccccc5)c5ccccc5)C(C)=C(C(OC(C)=O)C(=O)C13C)C4(C)C)CC2 [1b, 7-O-((S)-9″-(7‴-Methoxy-1‴,2‴,3‴,4‴-tetrahydronaphthalen-2‴-yl)amino) −9″-oxononanoyl) Paclitaxel] | ~100 fold | 12.8 kJ mol^–1 | –35 ± 7 kJ mol^–1 | –28.9 ± 0.3 kJ mol^–1 | 20 ± 5 J mol ^aK^–1
CC(=O)O[C@H]1C(=O)[C@]2(C)[C@@H](OC(=O)[C@H](C)NC(=O)c3ccc(-c4c5cc(F)c(=O)cc-5oc5cc(O)c(F)cc45)c(C(=O)O)c3)C[C@H]3OC[C@@]3(OC(C)=O)[C@H]2[C@H](OC(=O)c2ccccc2)[C@]2(O)C[C@H](OC(=O)[C@H](O)[C@@H](NC(=O)c3ccccc3)c3ccccc3)C(C)=C1C2(C)C [FTX2, Flutax2] | – | −0.3 kJ mol^–1 | – | – | –
